Measurements taken from BigSolDB 2.1.

CC(C)(Oc1ccc(C2CC2(Cl)Cl)cc1)C(=O)O (stereo not given)
solubility (mole fraction)
Settings	278.15 K	283.15 K	288.15 K	293.15 K	298.15 K	303.15 K	308.15 K	313.15 K	318.15 K	323.15 K
in DMF	0.218	0.236	0.257	0.277	0.296	0.319	0.342	0.365	0.385	0.407
in ethanol	0.156	0.171	0.187	0.203	0.219	0.239	0.259	0.277	0.294	0.312
in ethylene glycol	0.0348	0.0395	0.044	0.0486	0.053	0.0592	0.0652	0.0711	0.077	0.0823
in n-propanol	0.0758	0.0854	0.0948	0.104	0.113	0.125	0.137	0.148	0.159	0.169
in water	5.95e-07	7.63e-07	9.11e-07	1.1e-06	1.31e-06	1.54e-06	1.77e-06	2.05e-06	2.33e-06	2.65e-06
